Legend:
D(1A) dopamine receptor = D(1A) dopamine receptor (Homo sapiens, UniProt P21728)
Glucocorticoid receptor = target: T1, Glucocorticoid receptor (Homo sapiens, UniProt P04150)
T1 sequence (P04150 whole entry): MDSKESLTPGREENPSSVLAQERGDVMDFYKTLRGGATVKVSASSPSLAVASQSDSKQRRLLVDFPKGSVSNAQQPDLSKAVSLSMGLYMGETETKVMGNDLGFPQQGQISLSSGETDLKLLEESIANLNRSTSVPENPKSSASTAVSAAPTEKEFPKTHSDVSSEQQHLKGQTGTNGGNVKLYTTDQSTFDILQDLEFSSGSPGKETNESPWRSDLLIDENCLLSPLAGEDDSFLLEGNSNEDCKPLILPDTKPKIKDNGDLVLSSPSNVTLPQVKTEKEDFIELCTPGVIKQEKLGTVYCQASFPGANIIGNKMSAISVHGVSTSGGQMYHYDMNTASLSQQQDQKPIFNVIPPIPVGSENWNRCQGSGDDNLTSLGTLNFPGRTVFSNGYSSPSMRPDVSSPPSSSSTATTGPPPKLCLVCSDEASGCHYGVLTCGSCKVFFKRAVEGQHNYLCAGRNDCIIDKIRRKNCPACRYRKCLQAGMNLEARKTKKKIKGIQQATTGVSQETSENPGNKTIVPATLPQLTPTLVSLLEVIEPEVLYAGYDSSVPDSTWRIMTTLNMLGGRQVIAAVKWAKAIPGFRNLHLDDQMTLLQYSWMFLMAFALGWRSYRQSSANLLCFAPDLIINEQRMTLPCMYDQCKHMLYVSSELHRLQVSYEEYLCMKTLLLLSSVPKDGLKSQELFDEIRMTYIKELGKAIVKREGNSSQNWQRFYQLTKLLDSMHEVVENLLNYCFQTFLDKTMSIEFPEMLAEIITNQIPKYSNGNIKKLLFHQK

Vasopressin V2 receptor = Vasopressin V2 receptor (Homo sapiens, UniProt P30518)
[1] = target: T2, Gastrin/cholecystokinin type B receptor (Homo sapiens, UniProt P32239)
T2 sequence (P32239 whole entry): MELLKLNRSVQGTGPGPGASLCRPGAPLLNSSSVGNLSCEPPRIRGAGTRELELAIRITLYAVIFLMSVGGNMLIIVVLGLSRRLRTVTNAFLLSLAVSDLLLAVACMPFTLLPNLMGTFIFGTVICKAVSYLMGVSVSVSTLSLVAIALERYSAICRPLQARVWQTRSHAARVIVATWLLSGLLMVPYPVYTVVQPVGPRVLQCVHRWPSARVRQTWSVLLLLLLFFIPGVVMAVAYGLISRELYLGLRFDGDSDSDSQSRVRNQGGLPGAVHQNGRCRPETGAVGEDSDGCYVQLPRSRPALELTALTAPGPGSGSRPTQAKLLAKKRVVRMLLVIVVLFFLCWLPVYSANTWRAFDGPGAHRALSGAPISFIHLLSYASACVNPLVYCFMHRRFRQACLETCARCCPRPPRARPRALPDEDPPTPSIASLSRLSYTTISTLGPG

[2] = target: 5-hydroxytryptamine receptor 2B (Homo sapiens, UniProt P41595); type: functional, cell-based
[3] = target: T3, Alpha-2C adrenergic receptor (Homo sapiens, UniProt P18825); type: functional
T3 sequence (P18825 whole entry): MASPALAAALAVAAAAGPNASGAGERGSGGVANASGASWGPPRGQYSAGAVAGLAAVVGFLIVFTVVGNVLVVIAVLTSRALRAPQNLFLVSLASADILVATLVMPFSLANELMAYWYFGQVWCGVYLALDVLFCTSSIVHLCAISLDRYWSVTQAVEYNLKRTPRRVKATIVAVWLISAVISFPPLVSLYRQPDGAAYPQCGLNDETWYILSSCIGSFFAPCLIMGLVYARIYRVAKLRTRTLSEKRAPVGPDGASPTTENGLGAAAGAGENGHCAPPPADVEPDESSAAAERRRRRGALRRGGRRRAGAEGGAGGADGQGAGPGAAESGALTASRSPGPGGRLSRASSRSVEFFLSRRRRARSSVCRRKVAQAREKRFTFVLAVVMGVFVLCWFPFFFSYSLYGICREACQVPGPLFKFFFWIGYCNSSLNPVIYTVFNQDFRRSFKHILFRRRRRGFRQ

[4] = target: cGMP-inhibited 3',5'-cyclic phosphodiesterase 3A (Homo sapiens, UniProt Q14432); type: functional
Cannabinoid receptor 1 = Cannabinoid receptor 1 (Homo sapiens, UniProt P21554); type: functional, cell-based
[5] = target: T4, 5-hydroxytryptamine receptor 2C (Homo sapiens, UniProt P28335)
T4 sequence (P28335 whole entry): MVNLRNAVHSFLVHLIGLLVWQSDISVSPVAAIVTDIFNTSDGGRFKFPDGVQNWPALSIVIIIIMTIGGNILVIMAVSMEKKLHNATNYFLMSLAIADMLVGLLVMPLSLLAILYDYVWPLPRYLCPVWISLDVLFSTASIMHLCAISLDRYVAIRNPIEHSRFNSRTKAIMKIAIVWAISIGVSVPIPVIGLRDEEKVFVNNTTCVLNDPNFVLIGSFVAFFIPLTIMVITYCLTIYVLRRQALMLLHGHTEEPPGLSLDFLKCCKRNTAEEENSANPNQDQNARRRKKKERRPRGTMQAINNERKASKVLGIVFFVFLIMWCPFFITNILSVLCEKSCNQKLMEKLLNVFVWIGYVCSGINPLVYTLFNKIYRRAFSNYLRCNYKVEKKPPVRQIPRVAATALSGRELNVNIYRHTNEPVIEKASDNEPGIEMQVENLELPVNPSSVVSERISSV

Mu-type opioid receptor = Mu-type opioid receptor (Homo sapiens, UniProt P35372)
Further: assay procedure not described here.

5-hydroxytryptamine receptor 2B, sequence (P41595 whole entry): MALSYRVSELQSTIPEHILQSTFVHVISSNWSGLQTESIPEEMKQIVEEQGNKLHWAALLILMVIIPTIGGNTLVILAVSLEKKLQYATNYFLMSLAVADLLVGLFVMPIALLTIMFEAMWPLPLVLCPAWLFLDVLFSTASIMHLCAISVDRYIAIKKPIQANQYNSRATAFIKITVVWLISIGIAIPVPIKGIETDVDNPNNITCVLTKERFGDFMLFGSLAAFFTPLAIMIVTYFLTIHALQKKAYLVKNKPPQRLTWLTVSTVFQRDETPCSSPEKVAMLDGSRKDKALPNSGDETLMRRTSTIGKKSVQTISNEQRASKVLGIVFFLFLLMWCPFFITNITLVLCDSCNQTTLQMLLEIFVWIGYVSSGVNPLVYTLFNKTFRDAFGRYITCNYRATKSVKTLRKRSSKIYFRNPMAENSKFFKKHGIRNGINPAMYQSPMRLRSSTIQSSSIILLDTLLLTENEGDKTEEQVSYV
Vasopressin V2 receptor, sequence (P30518 whole entry): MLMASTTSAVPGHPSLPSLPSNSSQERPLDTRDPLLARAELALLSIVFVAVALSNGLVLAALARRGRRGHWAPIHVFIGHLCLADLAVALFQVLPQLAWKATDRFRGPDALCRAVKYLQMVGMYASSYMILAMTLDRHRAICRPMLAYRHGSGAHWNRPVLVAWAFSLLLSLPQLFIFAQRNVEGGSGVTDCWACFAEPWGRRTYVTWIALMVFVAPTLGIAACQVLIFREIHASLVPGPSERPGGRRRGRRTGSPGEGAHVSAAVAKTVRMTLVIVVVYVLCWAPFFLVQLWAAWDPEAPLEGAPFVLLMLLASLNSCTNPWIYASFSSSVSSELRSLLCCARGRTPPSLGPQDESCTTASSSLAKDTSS
Mu-type opioid receptor, sequence (P35372 whole entry): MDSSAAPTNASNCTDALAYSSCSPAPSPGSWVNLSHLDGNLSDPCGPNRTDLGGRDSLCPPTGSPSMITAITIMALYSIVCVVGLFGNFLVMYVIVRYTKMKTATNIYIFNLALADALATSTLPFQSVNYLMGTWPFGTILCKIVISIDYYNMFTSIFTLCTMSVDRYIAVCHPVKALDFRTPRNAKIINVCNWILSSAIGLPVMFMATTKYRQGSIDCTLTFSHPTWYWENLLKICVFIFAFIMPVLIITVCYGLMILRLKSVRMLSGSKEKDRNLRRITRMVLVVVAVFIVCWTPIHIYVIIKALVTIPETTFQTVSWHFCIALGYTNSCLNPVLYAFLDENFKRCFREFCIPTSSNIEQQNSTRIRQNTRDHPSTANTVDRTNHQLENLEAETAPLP
cGMP-inhibited 3',5'-cyclic phosphodiesterase 3A, sequence (Q14432 whole entry): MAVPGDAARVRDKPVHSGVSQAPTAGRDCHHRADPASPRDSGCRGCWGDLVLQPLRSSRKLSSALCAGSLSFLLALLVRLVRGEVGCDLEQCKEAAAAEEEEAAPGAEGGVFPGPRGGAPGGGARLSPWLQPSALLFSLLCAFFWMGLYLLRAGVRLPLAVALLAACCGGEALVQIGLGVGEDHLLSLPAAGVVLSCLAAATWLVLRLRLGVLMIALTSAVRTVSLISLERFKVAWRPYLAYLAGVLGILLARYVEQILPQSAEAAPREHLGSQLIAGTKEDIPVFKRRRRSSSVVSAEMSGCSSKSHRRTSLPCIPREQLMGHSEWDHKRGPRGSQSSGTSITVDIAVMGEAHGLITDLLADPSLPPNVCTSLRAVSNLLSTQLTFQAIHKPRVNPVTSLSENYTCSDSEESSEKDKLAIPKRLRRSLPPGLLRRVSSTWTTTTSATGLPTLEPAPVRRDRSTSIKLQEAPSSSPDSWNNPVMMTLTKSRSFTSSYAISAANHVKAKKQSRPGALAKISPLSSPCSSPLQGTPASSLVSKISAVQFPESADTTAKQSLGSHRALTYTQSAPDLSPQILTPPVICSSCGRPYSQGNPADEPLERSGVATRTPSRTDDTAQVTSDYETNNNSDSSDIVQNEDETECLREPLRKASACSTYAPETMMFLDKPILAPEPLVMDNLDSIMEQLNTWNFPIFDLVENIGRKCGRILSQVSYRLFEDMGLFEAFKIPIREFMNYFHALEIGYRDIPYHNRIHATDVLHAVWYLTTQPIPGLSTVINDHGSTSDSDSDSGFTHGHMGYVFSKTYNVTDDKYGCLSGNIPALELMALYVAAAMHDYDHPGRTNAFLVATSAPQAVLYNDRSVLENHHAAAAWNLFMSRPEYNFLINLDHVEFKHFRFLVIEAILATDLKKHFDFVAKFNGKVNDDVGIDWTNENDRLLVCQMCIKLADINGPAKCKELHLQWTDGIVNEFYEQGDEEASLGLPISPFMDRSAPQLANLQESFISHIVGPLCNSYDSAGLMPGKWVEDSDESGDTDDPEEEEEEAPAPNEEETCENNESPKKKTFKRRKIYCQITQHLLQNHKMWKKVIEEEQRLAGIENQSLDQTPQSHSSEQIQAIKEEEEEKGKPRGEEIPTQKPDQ
D(1A) dopamine receptor, sequence (P21728 whole entry): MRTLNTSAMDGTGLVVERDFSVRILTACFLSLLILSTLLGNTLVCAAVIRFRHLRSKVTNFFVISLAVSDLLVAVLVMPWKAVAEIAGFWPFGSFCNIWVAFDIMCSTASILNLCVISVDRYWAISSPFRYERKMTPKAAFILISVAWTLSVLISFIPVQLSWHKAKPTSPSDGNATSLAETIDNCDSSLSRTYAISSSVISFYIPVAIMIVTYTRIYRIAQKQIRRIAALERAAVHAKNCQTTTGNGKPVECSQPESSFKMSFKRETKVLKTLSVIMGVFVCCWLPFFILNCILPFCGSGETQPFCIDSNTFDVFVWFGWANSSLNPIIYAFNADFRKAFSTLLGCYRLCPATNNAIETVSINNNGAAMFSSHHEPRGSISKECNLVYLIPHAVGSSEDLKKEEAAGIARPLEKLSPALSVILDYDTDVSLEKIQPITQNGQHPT
Cannabinoid receptor 1, sequence (P21554 whole entry): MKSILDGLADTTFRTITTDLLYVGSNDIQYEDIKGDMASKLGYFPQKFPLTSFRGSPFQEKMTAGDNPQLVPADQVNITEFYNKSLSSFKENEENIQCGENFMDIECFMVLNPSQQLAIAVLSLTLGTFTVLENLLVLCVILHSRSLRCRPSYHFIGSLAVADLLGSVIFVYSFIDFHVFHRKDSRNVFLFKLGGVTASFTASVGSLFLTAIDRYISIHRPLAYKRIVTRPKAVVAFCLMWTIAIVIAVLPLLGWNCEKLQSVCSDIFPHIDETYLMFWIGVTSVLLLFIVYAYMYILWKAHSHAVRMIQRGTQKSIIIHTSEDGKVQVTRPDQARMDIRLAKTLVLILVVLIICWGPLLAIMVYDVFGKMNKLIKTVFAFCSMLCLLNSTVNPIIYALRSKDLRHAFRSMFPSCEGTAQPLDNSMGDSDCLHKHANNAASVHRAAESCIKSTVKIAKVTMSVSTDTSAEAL

Row | Compound | AC50 (D(1A) dopamine receptor) | AC50 (Glucocorticoid receptor) | AC50 (Vasopressin V2 receptor) | AC50 [1] | AC50 [2] | AC50 [3] | AC50 [4] | AC50 (Cannabinoid receptor 1) | AC50 [5] | AC50 (Mu-type opioid receptor)
1 | COc1cccc2c1C(=O)c1c(O)c3c(c(O)c1C2=O)C[C@@](O)(C(=O)CO)C[C@@H]3O[C@H]1C[C@H](N)[C@H](O[C@@H]2CCCCO2)[C@H](C)O1 [PIRARUBICIN] | > 30 µM |  |  |  |  |  |  |  |  | 
2 | O=c1[nH]cc(F)c(=O)[nH]1 [FLUOROURACIL] |  | > 30 µM | > 30 µM | > 30 µM |  |  |  |  |  | 
3 | CCOC(=O)Nc1ccc(NCc2ccc(F)cc2)nc1N [FLUPIRTINE] |  | > 30 µM | > 30 µM | > 30 µM | > 30 µM | > 30 µM | > 30 µM | > 30 µM | > 10 µM | 
4 | N[C@@H](Cc1cc(I)c(Oc2cc(I)c(O)c(I)c2)c(I)c1)C(=O)O [LEVOTHYROXINE] |  | > 30 µM | > 30 µM | > 30 µM | > 30 µM | > 30 µM | > 30 µM | > 30 µM | > 30 µM | 
5 | CN(C)CCc1c[nH]c2ccc(CS(=O)(=O)N3CCCC3)cc12 [ALMOTRIPTAN] |  |  | > 30 µM | > 30 µM | 11 µM | > 30 µM | > 30 µM | > 30 µM | > 30 µM | 
6 | CO[C@@]1(NC(=O)C(C(=O)O)c2ccc(O)cc2)C(=O)N2C(C(=O)O)=C(CSc3nnnn3C)CO[C@@H]21 (some centres not stated) [MOXALACTAM] | > 30 µM |  |  |  |  |  |  |  |  | 
7 | COC(=O)CCc1ccc(OCC(O)CNC(C)C)cc1 (configuration not stated) [ESMOLOL] |  | > 30 µM | > 30 µM | > 30 µM | > 30 µM | > 30 µM | > 30 µM |  | > 30 µM | 
8 | C[C@@H](O)[C@H]1C(=O)N2C(C(=O)O)=C(SCCN=CN)C[C@H]12 [IMIPENEM ANHYDROUS] |  |  |  |  | > 300 µM | > 300 µM | > 300 µM | > 300 µM | > 300 µM | > 300 µM
9 | c1cnc2cc3c(cc2n1)[C@@H]1CNC[C@H]3C1 [VARENICLINE] |  |  |  |  | > 30 µM | > 30 µM | > 30 µM | > 30 µM | > 30 µM | > 30 µM
10 | CC(C)/N=c1\cc2n(-c3ccc(Cl)cc3)c3ccccc3nc-2cc1Nc1ccc(Cl)cc1 [CLOFAZIMINE] |  | 0.034 µM | > 30 µM | > 30 µM | > 30 µM | 13 µM | > 30 µM | > 30 µM | > 30 µM | 
11 | C#CCN(C)Cc1ccccc1 [PARGYLINE] | > 30 µM |  |  |  | > 30 µM | > 30 µM | > 30 µM | > 30 µM | > 30 µM | 
12 | C[C@@H](CN1CC(=O)NC(=O)C1)N1CC(=O)NC(=O)C1 [DEXRAZOXANE] | > 30 µM |  |  |  |  |  |  |  |  | 
13 | CC(C)NCC(O)COc1ccc(CC(N)=O)cc1 (configuration not stated) [ATENOLOL] |  |  | > 30 µM | > 30 µM |  | > 30 µM | > 30 µM |  | > 30 µM | 
14 | CO[C@@H]1[C@@H](OC(N)=O)[C@@H](O)[C@H](Oc2ccc3c(O)c(NC(=O)c4ccc(O)c(CC=C(C)C)c4)c(=O)oc3c2C)OC1(C)C [NOVOBIOCIN] |  |  |  |  | > 30 µM | > 30 µM | > 30 µM | > 30 µM | > 30 µM | > 30 µM
15 | CN1CC2c3ccccc3Oc3ccc(Cl)cc3C2C1 (configuration not stated) [ASENAPINE] |  |  |  |  | > 30 µM | 0.3 µM | > 30 µM | > 30 µM | 0.0006 µM | > 30 µM
16 | O=C(O)[C@H]1/C(=C/CO)O[C@@H]2CC(=O)N21 [CLAVULANIC ACID] |  |  |  |  | > 30 µM | > 30 µM | > 30 µM | > 30 µM | > 30 µM | > 30 µM
17 | O=C(c1ccccc1)c1ccc2n1CCC2C(=O)O (configuration not stated) [KETOROLAC] |  |  | > 10 µM |  | > 30 µM | > 30 µM | > 30 µM |  | > 30 µM | > 30 µM
18 | C[C@H](Cn1cnc2c(N)ncnc21)OCP(=O)(O)O [TENOFOVIR ANHYDROUS] |  | > 30 µM | > 30 µM | > 30 µM | > 30 µM | > 30 µM | > 30 µM |  | > 30 µM | 
19 | O=NN(CCCl)C(=O)NC1CCCCC1 [LOMUSTINE] | > 30 µM |  |  |  |  |  |  |  |  | 
20 | O=C(Cc1cccs1)N[C@@H]1C(=O)N2C(C(=O)[O-])=C(C[n+]3ccccc3)CS[C@H]12 [CEPHALORIDINE] | > 30 µM |  |  |  | > 30 µM | > 30 µM | > 30 µM | > 30 µM | > 30 µM | 
21 | NCCCNCCSP(=O)(O)O [AMIFOSTINE] |  | > 30 µM | > 30 µM | > 30 µM | > 30 µM | > 30 µM | > 30 µM | > 30 µM | > 30 µM | 
22 | CCCCCCCCCCCCCCCC(=O)OC[C@H](COP(=O)([O-])OCC[N+](C)(C)C)OC(=O)CCCCCCCCCCCCCCC [COLFOSCERIL PALMITATE] | > 30 µM |  |  |  |  |  |  |  |  | 
23 | CC[N+](CC)(CCNC(=O)C(=O)NCC[N+](CC)(CC)Cc1ccccc1Cl)Cc1ccccc1Cl [AMBENONIUM] |  |  | > 30 µM | > 30 µM | > 30 µM | 2.5 µM | > 30 µM | > 30 µM | > 30 µM | 
24 | CC(C)C[C@H](NC(=O)[C@H](Cc1ccccc1)NC(=O)c1cnccn1)B(O)O [BORTEZOMIB] |  | > 30 µM | > 30 µM | > 30 µM | > 30 µM | > 30 µM | > 30 µM |  | > 30 µM | 
25 | CCN(CC)CCn1c(=O)c(Cc2ccc(OC)cc2)nc2ccccc21 [CAROVERINE] |  | > 30 µM | > 30 µM | > 30 µM | > 30 µM | 21.5 µM | > 30 µM | > 30 µM | 27 µM | 
26 | O=C(O)[C@@H](S)[C@@H](S)C(=O)O | > 30 µM |  |  |  |  |  |  |  |  | 
27 | CN(C)CCOC(c1ccc(Cl)cc1)c1ccccn1 (configuration not stated) [CARBINOXAMINE] |  | > 30 µM | > 30 µM | > 30 µM | > 30 µM | > 30 µM | > 30 µM | > 30 µM | > 30 µM | 
28 | CC(=O)NC[C@H]1CN(c2ccc(N3CCOCC3)c(F)c2)C(=O)O1 [LINEZOLID] |  | > 30 µM | > 30 µM | > 30 µM |  | > 30 µM | > 30 µM | > 30 µM | > 30 µM | 

From ChEMBL document CHEMBL5291721, “A preclinical secondary pharmacology resource illuminates target-adverse drug reaction associations of marketed drugs” (Nat Commun, 2023)
